Broadly, the microsomal CLint is the rate of metabolic loss divided by the concentration. Broadly, the AUC is the area under the concentration-time curve, a measure of exposure. Usually Cmax stands for the peak of the concentration-time curve. As usually defined, the Tmax is the time at which the peak concentration occurs. For orientation: fraction unbound means the share of the substance not bound to proteins or other matrix. As usually defined, the half-life is the time in which the quantity being followed falls by half. A low value points to fast loss. By clearance is commonly meant the volume of plasma or blood freed of the substance per unit of time. A low value points to a low capacity for elimination. The MRT is the average time that molecules of a dose stay in the body. The term Vd denotes the apparent volume that relates the amount in the body to the concentration in plasma or blood. A lower Vd goes with confinement near the circulation.

The source of these data is PMC9622310 (Biomolecules & Therapeutics, 2022).

Several values for one entry are separate records, joined by “and”; a condition that tells them apart may be missing. Identical values can stand only once. Like-named read-outs stand apart in the source and are kept apart here.

For series [1] the following is noted: ref Bergan et al., 1981; cited from earlier work.
A short description of series [2]: in vitro. Particulars: rat, intestinal microsomes, pH 7.4, CLint.
For series [3] the following is noted: oral 20 mg/kg; for GI24 h: remaining in gastrointestinal tract at 24 h, 20 mg/kg; for Ae0-24 h: unchanged in urine for 24 h.
In series [4] the test system is 4% human serum albumin. The settings on record: 1 to 100 μg/mL; ref Kim et al., 2020; cited from earlier work.
The nature of series [5]: in vivo. The settings on record: rat, plasma, po, 20 mg/kg; for CL renal: CLR.
The conditions of series [6]: intestinal microsomes.
Series [7] in a line: Tissue distribution of tofacitinib 30 min after intravenous administration. The class given is in vivo, rat. Particulars: 30 min after intravenous 10 mg/kg.
For series [8] the following is noted: oral 20 mg/kg, male Sprague-Dawley rats; ref Lee and Kim, 2019; cited from earlier work.
Series [9] can be described thus: Rat plasma protein binding of tofacitinib by equilibrium dialysis. The class given is in vitro ADME. The settings on record: pH 7.4. On the technique in general: In equilibrium dialysis only unbound substance equilibrates across the membrane.
The subject of series [10] is P-gp. Particulars: ref Hussar, 2014; cited from earlier work.
For series [11] the following is noted: oxidation and N-demethylation; ref Dowty et al., 2014; cited from earlier work.
The conditions of series [12]: hepatic microsomes.
Series [13] is classed as in vivo, rat. The settings on record: for Ae0-24 h: unchanged in urine for 24 h; for clearance: CL; for CL renal: CLR; for Vd: Vss.
For series [14], the system named is CYP2C11. Description: Immunoblot analysis of CYP2C11 in hepatic and intestinal microsomes of DSS rats. The arrangement: species or system rat.
Series [15] relates to rats. Description: Induction of ulcerative colitis by 5% DSS in drinking water. The class given is in vivo, rat.
The subject of series [16] is CYP3A1/2. Description: Immunoblot analysis of CYP3A1/2 in hepatic and intestinal microsomes of DSS rats. Further details: species or system rat. In general terms: In western blotting, separated proteins are transferred to a membrane and probed.
Where [17] appears, read: rat, plasma, iv, 10 mg/kg, intravenous 10 mg/kg, CON rats.
[18] abbreviates: rat, plasma, iv, 10 mg/kg, intravenous 10 mg/kg, DSS rats.

With `Cc1ncc([N+](=O)[O-])n1CCO` [metronidazole], the “Increase of plasma concentration in patients with ulcerative colitis” value in [1] is recorded as 50%.

Consider `C[C@@H]1CCN(C(=O)CC#N)C[C@@H]1N(C)c1ncnc2[nH]ccc12` [tofacitinib, Tofacitinib], for which the microsomal CLint in [2] (CON rats) turned out to be 5.81 µL/min/mg; in series [2] (DSS rats), 3.54 µL/min/mg. For the same compound, the “Decrease of CLR in DSS rats compared with CON rats” value was found to be 64.0% in series [3] and 77.6% in series [13] (intravenous 10 mg/kg). Besides, the results for the “Increase of AUC in DSS rats compared with CON rats” value in [3] and in [13] (intravenous 10 mg/kg) were 85.5% and 92.3%, respectively. Also, the GI24 h is 0.124 % of dose and 0.124 ± 0.141 % of dose in series [3] (CON rats); 1.10 % of dose and 1.10 ± 0.782 % of dose in series [3] (DSS rats); “less than 0.484 % of the intravenous dose” in [13] (intravenous, both CON and DSS rats). Moreover, the Ae0-24 h in series [3] (CON rats) was 4.13 ± 2.71 % of dose; in series [3] (DSS rats) it was 2.40 ± 1.26 % of dose; in [13] (intravenous 10 mg/kg, CON rats) it was 3.97 ± 2.93 % of dose; in [13] (intravenous 10 mg/kg, DSS rats), 2.73 ± 1.89 % of dose. Moreover, the “Concentration dependence of binding to 4% human serum albumin” value in series [4] was “independent of tofacitinib concentrations”. For the same compound, the AUC in series [5] (CON rats (n=6)) was 2650 ng·h/mL; in [5] (DSS rats (n=6)) it was 4920 ng·h/mL; in [13] (rat, plasma, iv, 10 mg/kg, intravenous 10 mg/kg, CON rats (n=7)), 4520 ng·h/mL; in series [13] (rat, plasma, iv, 10 mg/kg, intravenous 10 mg/kg, DSS rats (n=6)) it was 8680 ng·h/mL. In addition, the CL renal in series [5] (CON rats) is 5.47 ± 4.05 mL/min/kg; in series [5] (DSS rats) it was 1.97 ± 1.14 mL/min/kg; in [13] (setting [17]), 3.07 ± 1.4 mL/min/kg; in series [13] (setting [18]), 0.688 ± 0.149 mL/min/kg. Moreover, the figures for the Cmax in series [5] (CON rats) and in series [5] (DSS rats) were 2360 ± 587 ng/mL and 2460 ± 1050 ng/mL, respectively. The results for the Tmax in series [5] (CON rats) and in series [5] (DSS rats) were 19.2 min and 25 min, respectively. For the same compound, the “Km, DSS versus CON rats” value in series [6] and in series [12] was “comparable” each time. The “Decrease of CLint in DSS rats compared with CON rats” value in [6] (p=0.0679) was 39.1%; in series [12], 75.5%. In series [7], the “Concentrations in stomach, small intestine and mesentery, DSS versus CON rats” value was “significantly higher”. Besides, the “Plasma concentration, DSS versus CON group” value in series [7] is “significantly higher”. Besides, in series [7] (both groups), the “Distribution in rat tissues” value was “widely distributed”. Further, the F in [8] is 29.1%. The fraction unbound at 24 h, 10 μg/mL in series [9] (fresh plasma from CON and DSS rats) is 0.606 to 0.626; in series [9] (fresh plasma from CON rats), 0.606; in series [9] (fresh plasma from DSS rats) it was 0.626. Also, the P-gp substrate status entry in [10] is on record as “substrate of P-gp”. Also, the “Fraction metabolized by hepatic CYP3A4 and CYP2C19” value in series [11] is given as “approximately 70%”. Besides, the “Decrease of CL in DSS rats compared with CON rats” value in series [13] (intravenous 10 mg/kg) came to 47.7%. The “Decrease of CLNR in DSS rats compared with CON rats” value in [13] (intravenous 10 mg/kg) is 45.3%. The “Decrease of Vss in DSS rats compared with CON rats” value in series [13] (intravenous 10 mg/kg) is listed as 43.2%. Further, the CLNR in series [13] (intravenous 10 mg/kg, CON rats) stood at 34.0 ± 5.54 mL/min/kg; in series [13] (intravenous 10 mg/kg, DSS rats), 18.6 ± 1.65 mL/min/kg. In addition, the “CLR′ (CLR recalculated from free fraction in plasma)” value in series [13] (intravenous, CON rats) is recorded as 5.07 mL/min/kg; in series [13] (intravenous, DSS rats), 1.10 mL/min/kg. The “Contribution of CLR to CL” value in series [13] (intravenous, CON rats) came out at 8.27%; in series [13] (intravenous, DSS rats) it was 3.55%. In series [13] (rat, plasma, iv, 10 mg/kg), this compound gave a half-life of 31 ± 5.36 min. In addition, the clearance in [13] (setting [17]) came to 37.1 ± 5.68 mL/min/kg; in series [13] (setting [18]) it was 19.4 ± 2.26 mL/min/kg. The MRT in [13] (setting [17]) was 20.3 min; in series [13] (setting [18]), 31.9 min. Moreover, the values for the Vd in series [13] (setting [17]) and in series [13] (setting [18]) were 0.767 ± 0.286 L/kg and 0.436 ± 0.164 L/kg, respectively.

As to dextran sulfate sodium [DSS], the results for the “Decrease in protein expression of CYP2C11” value in series [14] (intestine of DSS rats) and in series [14] (liver of DSS rats) were 78.5% and 43.3%, respectively. In addition, the “Decrease in colon length compared to CON rats” value in series [15] (5% DSS (w/v) in drinking water for 10 days) was found to be 49.0%. Besides, the Body weight decrease in [15] (5% DSS (w/v) in drinking water for 10 days, DSS rats) is listed as 1.14%. In [15] (DSS rats), this compound displayed a CLCR of 2.68 mL/min/kg. Further, in series [15] (DSS rats versus CON rats), the “Decrease of plasma albumin” value amounted to 15.8%. The “Increase of urea nitrogen” value in series [15] (DSS rats versus CON rats) is recorded as 86.4%. In addition, the “Decrease in protein expression of CYP3A1/2” value came out at 99.3% in series [16] (intestine of DSS rats) and 80.1% in [16] (liver of DSS rats).
